Data on five molecules can be found in the supplement of paper PMC11061612.

Assay in all cases: combination Emax (second highest fraction inhibited in the dose matrix, 72 h); higher = more inhibition; extreme values may be limits of the assay
In experiment [1] the test system is SU-DHL-5 (B-Cell Non-Hodgkin's Lymphoma). The essentials: (§1)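 Bliss excess equals the observed combination effect minus the expected value EA + EB − EA·EB, where EA and EB are the effects of each agent alone. Combination Emax is the second-highest inhibition within the matrix. Inhibition was scaled from CellTiter-Glo 2.0 luminescence, with 0 set by vehicle wells and 1 by blank wells, after 72 hours of two-drug dosing of cells plated in 1536-well plates.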

Experiment [2] has as its system KY821 (Acute Myeloid Leukemia). The essentials: as §1
Experiment [3] deals with NCI-H526 (Small Cell Lung Carcinoma). In short, it runs like this: as §1
Experiment [4] concerns T-T (Esophageal Squamous Cell Carcinoma). In short, it runs like this:
as §1

Experiment [5] has as its system SNU-398 (Hepatocellular Carcinoma). In short, it runs like this: as §1
In experiment [6] the test system is DMS-114 (Small Cell Lung Carcinoma). The essentials: as §1
Experiment [7] relates to DAN-G (Pancreatic Carcinoma). In short, it runs like this: as §1
In experiment [8] the test system is HCC1419 (Breast Carcinoma). In short, it runs like this:
as §1

In a further experiment the test system is M059J (Glioblastoma). In short, it runs like this:
as §1

The subject of experiment [9] is NCCIT (Other Solid Carcinomas). In short, it runs like this: as §1
For experiment [10], the system named is NCI-H520 (Squamous Cell Lung Carcinoma). In short, it runs like this: as §1
The next experiment concerns RD (Rhabdomyosarcoma). In short, it runs like this: as §1
Experiment [11] deals with VMRC-RCZ (Kidney Carcinoma). In short, it runs like this: as §1
Experiment [12] deals with HCC1187 (Breast Carcinoma). The essentials: as §1
The test system of experiment [13] is SK-GT-4 (Esophageal Adenocarcinoma). The essentials: as §1
Experiment [14] relates to CW-2 (Colorectal Carcinoma). The essentials:
as §1

Experiment [15] deals with JHH-4 (Hepatocellular Carcinoma). The essentials: as §1
Experiment [16] relates to ST486 (Burkitt's Lymphoma). In short, it runs like this: as §1
The test system of experiment [17] is H9 (T-Cell Non-Hodgkin's Lymphoma). The essentials:
as §1

For experiment [18], the system named is CHSA8926 (Chondrosarcoma). In short, it runs like this:
as §1

Take `CN(CCO)CC[C@H](CSc1ccccc1)Nc1ccc(S(=O)(=O)NC(=O)c2ccc(N3CCC([C@@H](O)c4ccccc4-c4ccc(Cl)cc4)CC3)cc2)cc1S(=O)(=O)C(F)(F)F` [AZD4320] + C[C@@H]1COCCN1C2=NC(=NC(=C2)C3(CC3)[S@](=N)(=O)C)C4=C5C=CNC5=NC=C4 [AZD6738] (first compound max 1 µM, 7x7, partner max 10 µM): the “combination Emax” value in experiment [1] worked out at 1; in experiment [2], 1; in experiment [3], 0.977; in experiment [4], 0.561; in [5], 0.77; in [6] it was 0.592. For the same molecule, the “combination Emax” value worked out at 0.765 in experiment [7]; 0.367 in [8]; 0.774 in the experiment with M059J (Glioblastoma); 0.727 in experiment [9]; 0.696 in experiment [10]; 0.781 in the experiment with RD (Rhabdomyosarcoma). In addition, the “combination Emax” value in experiment [11] came to 0.566; in experiment [12], 0.536; in experiment [13], 0.675; in experiment [14] it was 0.49; in experiment [15], 0.385; in [16], 0.969. For the same molecule, the “combination Emax” value was determined as 1 in [17] and 0.761 in experiment [18].

Consider `COc1nnc2ccc(N3CCC(c4ccc(OCCN5CCN(C)C(=O)[C@H]5C)cc4)CC3)nn12` [AZD5153] + C=CCn1c(=O)c2cnc(Nc3ccc(N4CCN(C)CC4)cc3)nc2n1-c1cccc(C(C)(C)O)n1 [AZD1775] (first compound max 1 µM, partner max 1 µM), for which the “combination Emax” value was 1 in experiment [1]; 1 in [2]; 0.947 in experiment [3]; 0.615 in experiment [4]; 0.818 in [5]; 0.629 in experiment [6]. The “combination Emax” value in experiment [7] came out at 0.681; in [8] it was 0.346; in the experiment on M059J (Glioblastoma), 0.668; in experiment [9], 0.939; in [10], 0.811; with RD (Rhabdomyosarcoma) it was 0.774. For the same molecule, the “combination Emax” value in experiment [11] is 0.489; in [12] it was 0.792; in [13] it was 0.6; in experiment [14], 0.605; in [15], 0.56; in [16] it was 0.985. Further, the “combination Emax” value in experiment [17] is 1; in experiment [18], 0.735.

As for `COc1cccc(OCCCN)c1-c1cc(Nc2cnc(C#N)cn2)n[nH]1` [Prexasertib] + C=CCn1c(=O)c2cnc(Nc3ccc(N4CCN(C)CC4)cc3)nc2n1-c1cccc(C(C)(C)O)n1 [AZD1775] (first compound max 1 µM, partner max 1 µM), the “combination Emax” value in [1] came out at 1; in experiment [2], 1; in experiment [3], 0.937; in experiment [4], 0.888; in experiment [5], 0.514; in experiment [6], 0.385. The “combination Emax” value in experiment [7] turned out to be 0.801; in experiment [8], 0.269; with M059J (Glioblastoma), 0.822; in experiment [9], 0.917; in [10], 0.853; in the experiment with RD (Rhabdomyosarcoma), 0.75. Further, the “combination Emax” value in experiment [11] is 0.388; in experiment [12] it was 0.819; in [13], 0.758; in [14], 0.601; in [15], 0.701; in [16], 1. Also, the “combination Emax” value in [17] came to 1; in experiment [18] it was 0.531.

Consider `COc1cccc2c1C(=O)c1c(O)c3c(c(O)c1C2=O)C[C@@](O)(C(=O)CO)C[C@@H]3O[C@H]1C[C@H](N)[C@H](O)[C@H](C)O1` [Doxorubicin] + Cc1cc2ncnn2cc1Nc1ncc2c(n1)n(C1CCOCC1)c(=O)n2C [AZD7648] (first compound max 1 µM, 7x7, partner max 10 µM), for which the “combination Emax” value in [1] came out at 1; in experiment [2], 0.983; in [3] it was 0.988; in [4], 0.624; in experiment [5] it was 0.595; in experiment [6] it was 0.551. Further, the “combination Emax” value was determined as 0.735 in experiment [7]; 0.535 in experiment [8]; 0.829 in the experiment with M059J (Glioblastoma); 0.825 in experiment [9]; 0.771 in experiment [10]; 0.493 with RD (Rhabdomyosarcoma). Also, the “combination Emax” value came out at 0.317 in [11]; 0.724 in experiment [12]; 0.593 in experiment [13]; 0.231 in [14]; 0.666 in experiment [15]; 0.955 in experiment [16]. The “combination Emax” value stood at 1 in [17] and 0.701 in experiment [18].

For the molecule `COc1cccc(OCCCN)c1-c1cc(Nc2cnc(C#N)cn2)n[nH]1` [Prexasertib] + C[C@@H]1COCCN1C2=NC(=NC(=C2)C3(CC3)[S@](=N)(=O)C)C4=C5C=CNC5=NC=C4 [AZD6738] (first compound max 1 µM, 7x7, partner max 10 µM), the “combination Emax” value in [1] was 1; in [2], 1; in [3], 0.92; in [4], 0.742; in experiment [5], 0.437; in [6], 0.514. The “combination Emax” value in experiment [7] amounted to 0.769; in experiment [8], 0.449; with M059J (Glioblastoma), 0.686; in experiment [9], 0.797; in [10], 0.775; in the experiment on RD (Rhabdomyosarcoma), 0.539. Further, the “combination Emax” value in experiment [11] worked out at 0.398; in experiment [12], 0.614; in [13] it was 0.713; in experiment [14], 0.614; in experiment [15], 0.501; in experiment [16], 0.98. The “combination Emax” value in [17] is 1; in [18], 0.361.
